Assay results as given in ChEMBL document CHEMBL1201862, “PubChem BioAssay data set” (2004).
Values joined by “and” are separate entries in the source; they are usually repeats but may differ in a detail not shown here. Identical values can stand only once.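 Interpolation was linear, between the two tested concentrations surrounding the appropriate level; five concentrations were tested over 48 hours in 96-well plates. Abbreviation: GI50, concentration required for 50% inhibition of growth.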 Active and inactive are the calls of the source. Cut-off read from the data, not from the text of the source: active = GI50 up to about 1.1 µM and inactive = higher.

Tests used:
Test in all cases: growth of human tumour cells (NCI), 48 h
[1] = test system: 786-0
[2] = test system: DU-145
[3] = test system: EKVX
[4] = test system: HCT-116
[5] = test system: HCT-15
[6] = test system: HT-29
[7] = test system: KM12
[8] = test system: M19-MEL
[9] = test system: MDA-MB-231
[10] = test system: MDA-MB-435
[11] = test system: NCI-H522
[12] = test system: OVCAR-3
[13] = test system: RXF 393
[14] = test system: SF-268
[15] = test system: SF-295
[16] = test system: SK-MEL-2
[17] = test system: SK-MEL-5
[18] = test system: SNB-19
[19] = test system: SR
[20] = test system: TK-10

Cc1c2cnccc2c(C)c2c1c1ccccc1n2CCOC(=O)c1ccccc1
GI50 [1]: 11.5 µM (inactive)
GI50 [2]: 25.6 µM (inactive)
GI50 [3]: 13.3 µM (inactive)
GI50 [4]: 5.41 µM (inactive)
GI50 [5]: 11.9 µM
GI50 [6]: 16.4 µM (inactive)
GI50 [7]: 12.5 µM (inactive)
GI50 [8]: 13.9 µM (inactive)
GI50 [9]: 38.9 µM (inactive)
GI50 [10]: 14.4 µM (inactive)
GI50 [11]: 11.4 µM (inactive)
GI50 [12]: 12.2 µM (inactive)
GI50 [13]: 9.75 µM (inactive)
GI50 [14]: 11.4 µM (inactive)
GI50 [15]: 11 µM (inactive)
GI50 [16]: 12.5 µM (inactive)
GI50 [17]: 16.2 µM (inactive)
GI50 [18]: 10.7 µM (inactive)
GI50 [19]: 17.5 µM (inactive)
GI50 [20]: 11.2 µM (inactive)

Cn1cnc([N+](=O)[O-])c1Sc1nnc(-c2cccnc2)n1C
GI50 [1]: 18.5 µM (inactive)
GI50 [2]: 36.4 µM (inactive)
GI50 [3]: 38.2 µM (inactive)
GI50 [4]: 18.4 µM (inactive)
GI50 [5]: 17.2 µM
GI50 [6]: 17.4 µM (inactive)
GI50 [7]: > 82 µM (inactive)
GI50 [8]: 19.1 µM (inactive)
GI50 [9]: 19.2 µM (inactive)
GI50 [10]: 14.9 µM (inactive)
GI50 [11]: 5.78 µM (inactive)
GI50 [12]: 17.2 µM (inactive)
GI50 [13]: 7.83 µM (inactive)
GI50 [14]: 36.2 µM (inactive)
GI50 [15]: > 100 µM (inactive)
GI50 [16]: 18.5 µM (inactive)
GI50 [17]: 16.9 µM (inactive)
GI50 [18]: > 100 µM (inactive)
GI50 [19]: 15.3 µM (inactive)
GI50 [20]: 16.8 µM (inactive)

Cc1cccc(C(C)C)c1N1C(=O)C(=O)C(c2nc3ccccc3o2)C(=O)C1=O
GI50 [1]: > 100 µM (inactive)
GI50 [3]: 42.7 µM (inactive)
GI50 [4]: 53.7 µM (inactive)
GI50 [5]: 35.5 µM
GI50 [6]: 56.2 µM (inactive)
GI50 [7]: > 100 µM (inactive)
GI50 [8]: 55.3 µM (inactive)
GI50 [11]: 29.5 µM (inactive)
GI50 [12]: 32.1 µM (inactive)
GI50 [13]: 21.4 µM (inactive)
GI50 [14]: > 100 µM (inactive)
GI50 [15]: > 100 µM (inactive)
GI50 [16]: > 100 µM (inactive)
GI50 [17]: 60.1 µM (inactive)
GI50 [18]: > 100 µM (inactive)
GI50 [19]: 70 µM (inactive)
GI50 [20]: > 100 µM (inactive)

CSc1nc2c(nc(C)c(=O)n2C2OCC(OC(C)=O)C(OC(C)=O)C2OC(C)=O)c(=O)[nH]1 (stereo not given)
GI50 [1]: > 100 µM (inactive)
GI50 [3]: > 100 µM (inactive)
GI50 [4]: > 100 µM (inactive)
GI50 [5]: > 100 µM
GI50 [6]: > 100 µM (inactive)
GI50 [7]: > 100 µM (inactive)
GI50 [8]: > 100 µM (inactive)
GI50 [11]: > 100 µM (inactive)
GI50 [12]: > 100 µM (inactive)
GI50 [13]: > 100 µM (inactive)
GI50 [14]: > 100 µM (inactive)
GI50 [15]: > 100 µM (inactive)
GI50 [16]: > 100 µM (inactive)
GI50 [17]: > 100 µM (inactive)
GI50 [18]: > 100 µM (inactive)
GI50 [19]: > 100 µM (inactive)
GI50 [20]: > 100 µM (inactive)

Cc1nc(C(N)=S)sc1C(=O)CC(=O)C(=O)Nc1ccccc1[N+](=O)[O-]
GI50 [1]: > 100 µM (inactive)
GI50 [3]: > 100 µM (inactive)
GI50 [4]: > 100 µM (inactive)
GI50 [5]: > 100 µM
GI50 [6]: > 100 µM (inactive)
GI50 [7]: > 100 µM (inactive)
GI50 [8]: > 100 µM (inactive)
GI50 [11]: > 100 µM (inactive)
GI50 [12]: > 100 µM (inactive)
GI50 [13]: > 100 µM (inactive)
GI50 [14]: > 100 µM (inactive)
GI50 [15]: > 100 µM (inactive)
GI50 [16]: > 100 µM (inactive)
GI50 [17]: > 100 µM (inactive)
GI50 [18]: > 100 µM (inactive)
GI50 [19]: > 100 µM (inactive)
GI50 [20]: > 100 µM (inactive)

O=C(Cc1ccccc1)NN1C(=O)C(Cl)C1c1ccc([N+](=O)[O-])cc1 (stereo not given)
GI50 [1]: > 100 µM (inactive)
GI50 [3]: > 100 µM (inactive)
GI50 [4]: > 100 µM (inactive)
GI50 [5]: 45.5 µM
GI50 [6]: > 100 µM (inactive)
GI50 [7]: > 100 µM (inactive)
GI50 [8]: > 100 µM (inactive)
GI50 [11]: 25.1 µM (inactive)
GI50 [12]: > 100 µM (inactive)
GI50 [13]: 84.9 µM (inactive)
GI50 [14]: > 100 µM (inactive)
GI50 [15]: > 100 µM (inactive)
GI50 [16]: > 100 µM (inactive)
GI50 [17]: 49.1 µM (inactive)
GI50 [18]: > 100 µM (inactive)
GI50 [19]: 32.7 µM (inactive)
GI50 [20]: > 100 µM (inactive)

COC(=O)CCC(NC(=S)N/N=C/c1ccccn1)C(=O)OC (stereo not given)
GI50 [1]: > 100 µM (inactive)
GI50 [3]: > 100 µM (inactive)
GI50 [4]: > 100 µM (inactive)
GI50 [5]: > 100 µM
GI50 [6]: > 100 µM (inactive)
GI50 [7]: > 100 µM (inactive)
GI50 [8]: > 100 µM (inactive)
GI50 [11]: > 100 µM (inactive)
GI50 [12]: > 100 µM (inactive)
GI50 [13]: > 100 µM (inactive)
GI50 [14]: > 100 µM (inactive)
GI50 [15]: > 100 µM (inactive)
GI50 [16]: > 100 µM (inactive)
GI50 [17]: > 100 µM (inactive)
GI50 [18]: > 100 µM (inactive)
GI50 [19]: 59.2 µM (inactive)
GI50 [20]: > 100 µM (inactive)

O=c1c(Cl)c(Cl)cnn1-c1ccccc1
GI50 [1]: 5.64 µM (inactive) and 4.79 µM (inactive)
GI50 [2]: 14.7 µM (inactive) and 12.5 µM (inactive)
GI50 [4]: 2.29 µM (inactive) and 1.75 µM (inactive)
GI50 [5]: 2.35 µM and 1.85 µM
GI50 [7]: 8.91 µM (inactive) and 7.94 µM (inactive)
GI50 [8]: 3.05 µM (inactive) and 3.13 µM (inactive)
GI50 [9]: 1.77 µM (inactive)
GI50 [10]: 1.79 µM (inactive) and 2.08 µM (inactive)
GI50 [11]: 1.26 µM (inactive) and 1.84 µM (inactive)
GI50 [12]: 2.03 µM (inactive) and 1.99 µM (inactive)
GI50 [13]: 1.9 µM (inactive) and 2.52 µM (inactive)
GI50 [14]: 5.05 µM (inactive) and 6.64 µM (inactive)
GI50 [16]: 3.94 µM (inactive) and 3.28 µM (inactive)
GI50 [19]: 2.14 µM (inactive) and 1.61 µM (inactive)
GI50 [20]: 15.6 µM (inactive) and 9.33 µM (inactive)
